The source of these data is patent US12054746B2, “Method for inducing differentiation of pluripotent stem cells into intestinal epithelial cells” (PUBLIC UNIVERSITY CORPORATION NAGOYA CITY UNIVERSITY, priority 2018, dated 2024).

The nature of series [1]: in vitro. The following applies: human, Caco-2. As for the experimental part: (§1) HESS (pH 6.5) was added to a chamber on the apical side of human iPS cell-derived small intestinal epithelial cells and Caco-2 cells seeded on Cell culture insert, HBSS (pH 7.4) was added to a chamber on the basal side, and pre-incubated at 37° C. for 60 minutes. […] A sample was collected from the receiver chamber every 15 minutes. The unchanged substance was measured using UPLC-MS/MS. Fa·Fg in humans was referred from, previous reports (References 1 to 6 below). • Reference 1: Takenaka T, Harada N, Kuze J, Chiba M, Iwao T, Matsunaga T. Human small intestinal epithelial cells differentiated from adult intestinal stem cells as a novel system for predicting oral drug absorption in humans. Drug Metab Dispos. […] Expert Opin Drug Metab Toxicol.

Series [2] is described as follows: in vitro. The following applies: human. The method, then: (§2) Human iPS cells (FF-1) were treated with a serum-free medium containing 100 ng/mL activin A for 24 hours to initiate differentiation. […] Thereafter, the cells were cultured in Advanced DMEM/F-12 containing 2% FBS, 1% GlutaMax, 100 units/mL penicillin G, 100 μg/mL streptomycin sulfate, and 250 ng/mL FGF2 for 96 hours to differentiate into small intestine stem cells. The small intestine stem cell-like cells after the treatment with activin A and FGF2 were detached with Aecutase and seeded on GFR Matrigel which was diluted 30-fold with human iPS medium in advance. After seeding, the cells were cultured for 19 to 23 days in Advanced DMEM/F-12 containing 2% FBS, 0.1 mM NEAA, 2 mM L-Glu, 100 units/mL penicillin G, 100 μg/mL streptomycin sulfate, 2% B27 supplement, 1% N2 supplement, 1% HepExtend supplement, 20 ng/mL EGF, and 30 μM Forskolin. From 12 to 16 days before the end of differentiation, differentiation into small intestinal epithelial cells was induced was by adding PD98059 to 20 μM, 5-aza-2′-deoxycytidine (5-aza-2′-dC) to 5 μM, and A-83-01 to 0.5 μM.
as §1

For series [3] the following is noted: cited from earlier work.
For a further series, the system named is human iPS cells. Kind of series: Marker gene expression (real-time RT-PCR) after induction of differentiation of human iPS cells into intestinal epithelial cells. The class given is cell-based. As for the experimental part: Induction of differentiation of human iPS cells into intestinal epithelial cells was started in a state where undifferentiated colonies of the human iPS cells accounted for about 70% of the culture dish. […] was induced to differentiate into endoderm by culturing for two days in Roswell Park Memorial Institute (RPMI)+Glutamax medium containing 0.5% FBS, 100 ng/mL activin A, 100 units/mL penicillin G, and 100 μg/mL streptomycin and then culturing for one day in RPMI+Glutamax medium, containing 2% FBS, 100 ng/mL activin A, 100 units/ml penicillin G, and 100 μg/mL streptomycin. Then, the cells were cultured in DMEM/F12 containing 2% FBS, 1% Glutamax, and 250 ng/mL FGF2 for 4 days to induce differentiation into intestinal stem cells. After this treatment, Y-27632 (Rho-binding kinase inhibitor) was added so that the concentration was 10 μmol/L, and the cells treated at 37° C. for 60 minutes in a CO2 incubator under the condition of 5% CO2/95% air were treated with actase for detaching. The detached cells were seeded on a 24-well cell culture plate coated with Matrigel which was diluted 30-fold with a human iPS cell culture medium and from which growth factors was removed. […]
(In general: Quantitative PCR measures a nucleic acid by following its amplification.)

Series [4] concerns intestinal epithelial cell-like cells derived from human iPS cells. Kind of series: Drug metabolism experiment (CYP3A4 and UGT activity) in intestinal epithelial cell-like cells derived from human iPS cells. The class given is cell-based. The following applies: experiment 4, FF-1, Forskolin instead of 8-Br-cAMP from day 12 (FIG. 10).
Procedure: In experiment 3, the FF-1 strain was cultured for 5 days (day 0 to 5) to induce differentiation into endoderm, 4 days (day 5 to 9) to induce differentiation into intestinal stem cells, and 18 days (day 10 to 28) to induce differentiation into intestinal epithelial cells. In experiment 4, the FF-1 strain was cultured for 7 days (day 0 to 7) to induce differentiation into endoderm, 4 days (day 7 to day 11) to induce differentiation into intestinal stem cells, and 18 days (day 12 to day 30) to induce differentiation into intestinal epithelial cells. […]
After completing the differentiation induction, the differentiated cells were cultured at 37° C. in a culture medium (DMEM/F12 containing 1% Glutamax, 1% NEAA, 1% N2 supplement, 100 units/mL penicillin G, 100 μg/mL streptomycin, and 20 ng/mL EGF) containing 5 μmol/L midazolam and 10 μmol/L 7-hydroxycoumarin, and the culture medium was sampled after 24 hours (experiments 3 and 4) or 2 hours (experiment 5). The metabolic activity was calculated from the amount of 1-hydroxymidazolam or 7-hydroxycoumarin glucuronide in the culture medium, which was measured using a liquid chromatography-mass spectrometer (LC-MS/MS). After completing the metabolic experiment, protein quantification was performed, and the metabolic activity was corrected with the amount of protein.
The next series concerns Caco-2 cells. Kind of series: in vitro. The method, then: as §1
For series [5], the system named is human iPS cell-derived small intestinal epithelial cells. Kind of series: in vitro. As for the experimental part: as §2, §1
[6] abbreviates: in humans, from References 1 to 6.

Read-outs that look alike come from different tables or passages of the source.

Broadly, the Papp A→B is how fast a substance crosses the layer from the apical side. In the case of `CCCC(=O)Nc1ccc(OCC(O)CNC(C)C)c(C(C)=O)c1` (stereo not shown) [Acebutolol, acebutolol], the Papp A→B at 60 min in the series “in vitro [1]” is 0.35 ×10⁻⁶ cm/s; in the series “in vitro [2]”, 2.3 ×10⁻⁶ cm/s.

For `Cc1cc(=O)n(-c2ccccc2)n1C` [Antipvrine, antipyrine], the Papp A→B at 60 min in the series “in vitro [2]” is 55.6 ×10⁻⁶ cm/s.

Consider `Cn1c(=O)c2c(ncn2C)n(C)c1=O` [Caffeine, caffeine], for which the Papp A→B at 60 min in the series “in vitro [2]” came to 52.4 ×10⁻⁶ cm/s.

For `CCOC(=O)[C@H](CCc1ccccc1)N[C@@H](C)C(=O)N1CCC[C@H]1C(=O)O` [Enalapril, enalapril], the Papp A→B at 60 min was determined as 0.19 ×10⁻⁶ cm/s in the series “in vitro [1]” and 1.93 ×10⁻⁶ cm/s in “in vitro [2]”. In series [3] (setting [6]), the Fa · Fg/100 was 0.6.

Turning to `CC[C@H]1OC(=O)[C@H](C)[C@@H](O[C@H]2C[C@@](C)(OC)[C@@H](O)[C@H](C)O2)[C@H](C)[C@@H](O[C@@H]2O[C@H](C)C[C@H](N(C)C)[C@H]2O)[C@](C)(O)C[C@@H](C)C(=O)[C@H](C)[C@@H](O)[C@]1(C)O` [Erythromycin, erythromycin], the apical-to-basolateral permeability (Papp A→B) at 60 min came to 0.45 ×10⁻⁶ cm/s in “in vitro [1]” and 1.24 ×10⁻⁶ cm/s in “in vitro [2]”.

Consider `C=C[C@@]1(C)CC(=O)[C@]2(O)[C@@]3(C)[C@@H](O)CCC(C)(C)[C@@H]3[C@H](O)[C@H](OC(C)=O)[C@@]2(C)O1` [Forskolin], for which the “effect on the expressions of CYP3A4 and ABCB1/MDR1” value with human iPS cells (experiment 1, Windy, compared with 8-Br-cAMP) is “drastically exceeded that of 8-Br-cAMP”. Also, the “expression level of CYP3A4 and SGLT1” value with human iPS cells (experiment 2, Windy, Forskolin alone day 8 to 26, vs 8-Br-cAMP and IBMX in combination (FIG. 5)) was “significantly increased”. Also, the CYP3A4 activity result in series [4] is “further significant increase”.

In the case of `NS(=O)(=O)c1cc2c(cc1Cl)NCNS2(=O)=O` [Hydrochlorothiazide, hydrochlorothiazide], the Papp A→B at 60 min in “in vitro [1]” was 2.44 ×10⁻⁶ cm/s; in the series “in vitro [2]”, 4.4 ×10⁻⁶ cm/s. In addition, in series [3] (setting [6]), the Fa · Fg/100 was 0.67.

Consider `CN(C)C(=N)N=C(N)N` [Metformin, metformin], for which the Papp A→B at 60 min came out at 0.52 ×10⁻⁶ cm/s in the series “in vitro [1]” and 2.43 ×10⁻⁶ cm/s in “in vitro [2]”. In addition, the Fa · Fg/100 in series [3] (setting [6]) was 0.71.

Turning to `Cc1ncc2n1-c1ccc(Cl)cc1C(c1ccccc1F)=NC2` [Midazolam, midazolam], the Papp A→B in “in vitro [1]” amounted to 38.7 ×10⁻⁶ cm/s; in “in vitro [2]” it was 48.3 ×10⁻⁶ cm/s. Besides, in series [3] (setting [6]), the Fa · Fg/100 was 0.369.

Turning to `NC(=O)c1ncn([C@@H]2O[C@H](CO)[C@@H](O)[C@H]2O)n1` [Ribavirin, ribavirin], the figures for the Papp A→B at 60 min in the series “in vitro [1]” and in the series “in vitro [2]” were 0.32 ×10⁻⁶ cm/s and 3.3 ×10⁻⁶ cm/s, respectively. In addition, the Fa · Fg/100 in series [3] (setting [6]) was 0.85.

`CCN1CCCC1CNC(=O)c1cc(S(N)(=O)=O)ccc1OC` (stereo not shown) [Sulpiride, sulpiride] registered a Papp A→B at 60 min in the series “in vitro [2]” of 1.45 ×10⁻⁶ cm/s.

Turning to `C=CC[C@@H]1/C=C(\C)C[C@H](C)C[C@H](OC)[C@H]2O[C@@](O)(C(=O)C(=O)N3CCCC[C@H]3C(=O)O[C@H](/C(C)=C/[C@@H]3CC[C@@H](O)[C@H](OC)C3)[C@H](C)[C@@H](O)CC1=O)[C@H](C)C[C@@H]2OC` [Tacrolimus, tacrolimus], the Papp A→B at 60 min came out at 12.3 ×10⁻⁶ cm/s in “in vitro [1]” and 14.3 ×10⁻⁶ cm/s in “in vitro [2]”. Further, in series [3] (setting [6]), the Fa · Fg/100 was 0.136.

For lucifer yellow, the Papp A→B was 0.06 ×10⁻⁶ cm/s in the series with Caco-2 cells and 0.3 ×10⁻⁶ cm/s in series [5]. For the same compound, the Fa · Fg/100 in series [3] (in vivo) is 0.
